Our source for the mean particle size values is patent publication US20230143042A1, “SYSTEM AND METHOD FOR AEROSOL PARTICLE PRODUCTION OF SUBMICRON AND NANO STRUCTURED MATERIALS” (The Trustees of Princeton University, priority 2020, published 2023).

The data set can be described thus: Size of dried aerosol particles by scanning electron microscopy. It is filed as physicochemical. The note with it: atomized at 1.5 bar gauge (TIPT-based sol 2.5 bar), dried in room air ~23° C., ~30% RH. The procedure: Various concentrations (e.g., 0.5-15% wt.) of solutions of sodium chloride in deionized water was prepared by mixing the crystals of table salt (NaCl) with deionized water at 45° C. for 15 min. The procedure for preparing precursor of silica (SiO2) was: tetraethoxysilane (TEOS), ethanol, deionized water, and HCl (mole ratio 1:3.8:1:5×10−5) were mixed at 60° C. for 120 min and then aged at room temperature under continuous stirring up to 43 hours. For synthesis of titania (TiO2) particles, titanium (IV) tetraisopropoxide (TIPT) and titanium (IV) butoxide (TBT)-based precursors were utilized. […]
For the salt solutions, the temperature and relative humidity of room air used for drying of droplets were ˜23° C. and ˜30% respectively. […] Provided the measured air velocity used to dry the droplets is ˜0.1-0.5 m/s (laminar flow, Re=300-1600), in terms of the drying kinetics of a single droplet, the generated droplets are expected to turn into dry particles after traveling 0.04-400 μm in room air, whereas the overall particle residence time in the setup is ˜1-5 s, which is much longer than the needed drying time. […]

In the case of `[Cl-].[Na+]` [NaCl, sodium chloride], the mean particle size is 227 nm.
